Usually IC50 stands for the midpoint of a concentration-inhibition curve. A higher IC50 goes with weaker potency.

The record followed here is patent publication US20240391875A1, “ISOQUINOLINONES AND QUINOLINONES AS MODULATORS OF POLRMT” (Pretzel Therapeutics, Inc., priority 2021, published 2024).

This test addresses POLRMT (Homo sapiens, UniProt O00411). As to the kind of experiment: homogeneous TR-FRET assay of mitochondrial transcription (inhibition of POLRMT). Type of test: biochemical. The method in brief:
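Recombinant POLRMT (7.5 nM) with TFB2M, TFAM and linearized LSP plasmid template, 500 μM NTPs, pH 7.5 Mg buffer; 60 min at 37° C. Reaction stopped with EDTA/high-salt buffer, 407 bp RNA transcript detected by hybridized ATTO647/Europium-cryptate probe pair; TR-FRET 665/620 nm ratio taken as transcript yield.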

The mark [1] stands for this setting: isoquinolinone compounds (Table 1).
[2] abbreviates: quinolinone compounds (Table 2).

Chain of POLRMT (O00411 42-1230): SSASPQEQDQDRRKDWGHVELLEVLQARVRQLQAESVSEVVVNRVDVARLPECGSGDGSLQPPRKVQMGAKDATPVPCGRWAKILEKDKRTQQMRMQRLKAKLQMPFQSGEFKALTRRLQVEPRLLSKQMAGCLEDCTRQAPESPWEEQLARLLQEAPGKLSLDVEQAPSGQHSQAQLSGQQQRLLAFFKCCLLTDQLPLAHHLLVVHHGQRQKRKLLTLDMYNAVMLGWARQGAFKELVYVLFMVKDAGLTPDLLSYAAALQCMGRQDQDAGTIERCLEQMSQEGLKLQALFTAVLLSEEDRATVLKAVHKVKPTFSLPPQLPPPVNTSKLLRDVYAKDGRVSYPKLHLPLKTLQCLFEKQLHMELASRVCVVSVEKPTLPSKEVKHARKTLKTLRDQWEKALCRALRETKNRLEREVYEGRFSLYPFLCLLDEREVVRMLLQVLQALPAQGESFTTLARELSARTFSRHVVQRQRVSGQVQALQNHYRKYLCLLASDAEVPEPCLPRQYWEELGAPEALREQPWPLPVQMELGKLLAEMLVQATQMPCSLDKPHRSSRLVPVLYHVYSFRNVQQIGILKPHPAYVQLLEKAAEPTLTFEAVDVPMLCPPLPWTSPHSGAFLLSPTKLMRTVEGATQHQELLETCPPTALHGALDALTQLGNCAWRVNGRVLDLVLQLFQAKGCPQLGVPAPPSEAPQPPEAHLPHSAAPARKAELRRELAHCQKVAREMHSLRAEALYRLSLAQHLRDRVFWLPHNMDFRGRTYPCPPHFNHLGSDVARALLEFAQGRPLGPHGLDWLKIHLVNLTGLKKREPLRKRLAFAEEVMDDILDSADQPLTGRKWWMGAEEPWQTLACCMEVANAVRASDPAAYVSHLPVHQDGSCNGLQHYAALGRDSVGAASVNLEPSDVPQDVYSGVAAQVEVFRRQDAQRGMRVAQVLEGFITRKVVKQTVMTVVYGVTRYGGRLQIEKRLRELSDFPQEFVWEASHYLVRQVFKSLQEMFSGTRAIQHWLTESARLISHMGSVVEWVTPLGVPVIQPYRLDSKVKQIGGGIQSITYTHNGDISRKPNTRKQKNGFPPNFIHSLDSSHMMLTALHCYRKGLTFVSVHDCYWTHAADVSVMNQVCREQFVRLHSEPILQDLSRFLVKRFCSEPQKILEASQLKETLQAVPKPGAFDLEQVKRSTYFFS

On to `Cc1ccccc1-c1c[nH]c(=O)c2cc(OC(C)C(N)=O)ccc12` (centres unmarked) [Example 71, 2-((1-oxo-4-(o-tolyl)-1,2-dihydroisoquinolin-7-yl)oxy)propanamide], for which, under setting [1], half-maximal inhibition (IC50) was put at 1000 nM.
The same measure, in the same setting: next, `Cc1cccc(C)c1-c1c[nH]c(=O)c2cc(OCC#N)ccc12` [Example 99, 2-((4-(2,6-dimethylphenyl)-1-oxo-1,2-dihydroisoquinolin-7-yl)oxy)acetonitrile]: 20 nM.
Same read-out and setting: next, `COC[C@@H]1COCCN1C(=O)[C@@H](C)Oc1ccc2c(-c3ccc(F)cc3Cl)c[nH]c(=O)c2c1` [Example 102, 4-(2-chloro-4-fluorophenyl)-7-(((R)-1-((R)-3-(methoxymethyl)morpholino)-1-oxopropan-2-yl)oxy)isoquinolin-1(2H)-one]: 700 nM; `CC(=O)N1CCCC(Oc2ccc3c(-c4ccccc4C)c[nH]c(=O)c3c2)C1` (centres unmarked) [Example 42, 7-((1-acetylpiperidin-3-yl)oxy)-4-(o-tolyl)isoquinolin-1(2H)-one]: 7000 nM.
As for `C[C@@H](Oc1ccc2c(-c3ccc(F)cc3Cl)cc(=O)[nH]c2c1)C(=O)N(C)C` [Example Q6, (R)-2-((4-(2-chloro-4-fluorophenyl)-2-oxo-1,2-dihydroquinolin-7-yl)oxy)-N,N-dimethylpropanamide], under setting [2], the IC50 was determined as 18000 nM.
`C[C@H]1CN(C(=O)[C@@H](C)Oc2ccc3c(-c4ccc(F)cc4Cl)c[nH]c(=O)c3c2)C[C@H](C)O1` (single isomer, unassigned) [Example 124]: 500 nM corresponded to half-maximal inhibition under setting [1] (IC50).
The same measure, in the same setting: next, `COCC(Oc1ccc2c(-c3ccccc3C)c[nH]c(=O)c2c1)C(=O)N(C)C` (single isomer, unassigned) [Example 55, 3-methoxy-N,N-dimethyl-2-((1-oxo-4-(o-tolyl)-1,2-dihydroisoquinolin-7-yl)oxy)propenamide]: 2000 nM; `C[C@@H](Oc1ccc2c(-c3ccc(F)cc3Cl)c[nH]c(=O)c2c1)C(=O)N1CCC(F)(F)CC1` [Example 91, (R)-4-(2-chloro-4-fluorophenyl)-7-((1-(4,4-difluoropiperidin-1-yl)-1-oxopropan-2-yl)oxy)isoquinolin-1(2H)-one]: 300 nM; `C[C@@H](Oc1ccc2c(-c3ccc(F)cc3Cl)c[nH]c(=O)c2c1)C(=O)N1CC[S+]([O-])CC1` [Example 128, (R)-4-(2-chloro-4-fluorophenyl)-7-((1-(1-oxidothiomorpholino)-1-oxopropan-2-yl)oxy)isoquinolin-1(2H)-one]: 3000 nM.
`COCC(Oc1ccc2c(-c3ccccc3C)c[nH]c(=O)c2c1)C(N)=O` (single isomer, unassigned) [Example 52] displayed an IC50 under setting [1] greater than 100000 nM.
Turning to `C[C@@H](Oc1ccc2c(-c3ccc(F)cc3Cl)c[nH]c(=O)c2c1)C(=O)N1CCCC(F)(F)C1` [Example 84, (R)-4-(2-chloro-4-fluorophenyl)-7-((1-(3,3-difluoropiperidin-1-yl)-1-oxopropan-2-yl)oxy)isoquinolin-1(2H)-one], it took 80 nM to reach half-maximal inhibition under setting [1] (IC50).
Regarding `CC(=O)N(C)Cc1ccc2c(-c3ccccc3C)c[nH]c(=O)c2c1` [Example 45, N-methyl-N-((1-oxo-4-(o-tolyl)-1,2-dihydroisoquinolin-7-yl)methyl)acetamide], under setting [1], the concentration for half-maximal inhibition (IC50) is greater than 100000 nM.
Still for that read-out and setting: next, `CC(=O)Nc1ccc2c(-c3ccccc3C)c[nH]c(=O)c2c1` [Example 31, N-(1-oxo-4-(o-tolyl)-1,2-dihydroisoquinolin-7-yl)acetamide]: 8000 nM.
Same read-out and setting: next, `O=c1[nH]cc(-c2ccc(F)cc2Cl)c2ccc(O)cc12` [Example 2, 4-(2-chloro-4-fluorophenyl)-7-hydroxyisoquinolin-1(2H)-one]: greater than 100000 nM; `CC(=O)NCc1ccc2c(-c3ccccc3C)c[nH]c(=O)c2c1` [Example 39, N-((1-oxo-4-(o-tolyl)-1,2-dihydroisoquinolin-7-yl)methyl)acetamide]: greater than 100000 nM; `CCOC(=O)C(C)Cc1ccc2c(-c3ccccc3C)c[nH]c(=O)c2c1` (centres unmarked) [Example 40, ethyl 2-methyl-3-(1-oxo-4-(o-tolyl)-1,2-dihydroisoquinolin-7-yl)propanoate]: 1000 nM.
Still for that read-out and setting: next, `COCC(C#N)Oc1ccc2c(-c3ccccc3C)c[nH]c(=O)c2c1` (single isomer, unassigned) [Example 76, 3-methoxy-2-((1-oxo-4-(o-tolyl)-1,2-dihydroisoquinolin-7-yl)oxy)propanenitrile]: 200 nM; `C[C@@H](Oc1ccc2c(-c3ccc(F)cc3Cl)c[nH]c(=O)c2c1)C(=O)N1CCS(=O)(=O)CC1` [Example 101, (R)-4-(2-chloro-4-fluorophenyl)-7-((1-(1,1-dioxidothiomorpholino)-1-oxopropan-2-yl)oxy)isoquinolin-1(2H)-one]: 2000 nM.
As for `Cc1ccccc1-c1cc(=O)[nH]c2cc(OCC(C)C)ccc12` [Example Q12, 7-isobutoxy-4-(o-tolyl)quinolin-2(1H)-one], under setting [2], the IC50 worked out at 18000 nM.
With `Cc1ccccc1-c1c[nH]c(=O)c2cc(O[C@H](C)C(=O)N3C4CCCC3CC4)ccc12` [Example 86, 7-(((2R)-1-(8-azabicyclo[3.2.1]octan-8-yl)-1-oxopropan-2-yl)oxy)-4-(o-tolyl)isoquinolin-1(2H)-one], under setting [1], the IC50 is 20 nM.
The molecule `Cc1sccc1-c1c[nH]c(=O)c2cc(OCC(N)=O)ccc12` [Example 134, 2-((4-(2-methylthiophen-3-yl)-1-oxo-1,2-dihydroisoquinolin-7-yl)oxy)acetamide] returned an IC50 under setting [1] of 21000 nM.
On the same count and under the same terms, next, `Cc1ccccc1-c1c[nH]c(=O)c2cc(O[C@H](C)C(=O)N3CCCC(F)(F)C3)ccc12` [Example 81, (R)-7-((1-(3,3-difluoropiperidin-1-yl)-1-oxopropan-2-yl)oxy)-4-(o-tolyl)isoquinolin-1(2H)-one]: 30 nM; `C[C@@H](Oc1ccc2c(-c3ccc(F)cc3Cl)c[nH]c(=O)c2c1)C(=O)N1CCC[C@H](C(=O)O)C1` [Example 62, (S)-1-((R)-2-((4-(2-chloro-4-fluorophenyl)-1-oxo-1,2-dihydroisoquinolin-7-yl)oxy)propanoyl)piperidine-3-carboxylic acid]: 60 nM.
In the case of `O=c1cc(-c2ccc(F)cc2Cl)c2ccc(O)cc2[nH]1` [Example Q2, 4-(2-chloro-4-fluorophenyl)-7-hydroxyquinolin-2(1H)-one], under setting [2], the IC50 is greater than 100000 nM.
Take `Cc1ccccc1-c1c[nH]c(=O)c2cc(CO)ccc12` [Example 15, 7-(hydroxymethyl)-4-(o-tolyl)isoquinolin-1(2H)-one]: under setting [1], the IC50 stood at 51000 nM.
Consider `CC(C)Oc1ccc2c(-c3ccc(F)cc3Cl)cc(=O)[nH]c2c1` [Example Q4, 4-(2-chloro-4-fluorophenyl)-7-isopropoxyquinolin-2(1H)-one], for which the IC50 under setting [2] was found to be 23000 nM.
With `Cc1ccccc1-c1c[nH]c(=O)c2cc(O[C@H](C)C(=O)N3CCOCC3)ccc12` [Example 78, (R)-7-((1-morpholino-1-oxopropan-2-yl)oxy)-4-(o-tolyl)isoquinolin-1(2H)-one], it took 30 nM to reach half-maximal inhibition under setting [1] (IC50).
`C[C@@H](Oc1ccc2c(-c3ccc(F)cc3Cl)c[nH]c(=O)c2c1)C(=O)N1C2CCCC1CC2` [Example 93, 7-(((2R)-1-(8-azabicyclo[3.2.1]octan-8-yl)-1-oxopropan-2-yl)oxy)-4-(2-chloro-4-fluorophenyl)isoquinolin-1(2H)-one] had an IC50 under setting [1] of 30 nM.
In turn, `Cc1ccccc1-c1cc(=O)[nH]c2cc(O[C@H](C)C(=O)N3CCC(C(=O)O)CC3)ccc12` [Example Q14, (R)-1-(2-((2-oxo-4-(o-tolyl)-1,2-dihydroquinolin-7-yl)oxy)propanoyl)piperidine-4-carboxylic acid] yielded an IC50 under setting [2] of 7000 nM.
`Cc1ccccc1-c1c[nH]c(=O)c2cc(NC(C)C(N)=O)ccc12` (centres unmarked) [Example 68]: the IC50 under setting [1] worked out at 11000 nM.
Same read-out and setting: the same measure for `Cc1ccccc1-c1c[nH]c(=O)c2cc(O[C@H](C)C(=O)N3CCC[C@H](C(N)=O)C3)ccc12` [Example 94, (S)-1-((R)-2-((1-oxo-4-(o-tolyl)-1,2-dihydroisoquinolin-7-yl)oxy)propanoyl)piperidine-3-carboxamide]: 70 nM; for `Cc1ccccc1-c1c[nH]c(=O)c2cc(N(C)CC(N)=O)ccc12` [Example 66, 2-(methyl(1-oxo-4-(o-tolyl)-1,2-dihydroisoquinolin-7-yl)amino)acetamide]: 5000 nM; for `C[C@@H](Oc1ccc2c(-c3ccc(F)cc3Cl)c[nH]c(=O)c2c1)C(=O)N1CCO[C@H](C(=O)O)C1` [Example 121, (S)-4-((R)-2-((4-(2-chloro-4-fluorophenyl)-1-oxo-1,2-dihydroisoquinolin-7-yl)oxy)propanoyl)morpholine-2-carboxylic acid]: 200 nM.
Still for that read-out and setting: the same measure for `Cc1cccc(C)c1-c1c[nH]c(=O)c2cc(O[C@H](C)C(=O)O)ccc12` [Example 111, (R)-2-((4-(2,6-dimethylphenyl)-1-oxo-1,2-dihydroisoquinolin-7-yl)oxy)propanoic acid]: 90 nM.
As for `C[C@@H](Oc1ccc2c(-c3ccc(F)cc3Cl)c[nH]c(=O)c2c1)C(=O)N1CCO[C@@H](C(N)=O)C1` [Example 129, (R)-4-((R)-2-((4-(2-chloro-4-fluorophenyl)-1-oxo-1,2-dihydroisoquinolin-7-yl)oxy)propanoyl)morpholine-2-carboxamide], under setting [1], the IC50 came out at 1000 nM.
In turn, `C[C@@H](Oc1ccc2c(-c3ccc(F)cc3Cl)c[nH]c(=O)c2c1)C(=O)N1CCN(C)CC1` [Example 131, (R)-4-(2-chloro-4-fluorophenyl)-7-((1-(4-methylpiperazin-1-yl)-1-oxopropan-2-yl)oxy)isoquinolin-1(2H)-one] returned an IC50 under setting [1] of 1000 nM.
The molecule `Cc1ccccc1-c1c[nH]c(=O)c2cc(O[C@H](C)C(=O)N3CC[C@H](C(=O)O)C3)ccc12` [Example 35, (S)-1-((R)-2-((1-oxo-4-(o-tolyl)-1,2-dihydroisoquinolin-7-yl)oxy)propanoyl)pyrrolidine-3-carboxylic acid] came in with an IC50 under setting [1] of 400 nM.
On the same count and under the same terms, the same measure for `Cc1ccccc1-c1c[nH]c(=O)c2cc(-c3ccccc3)ccc12` [Example 48, 7-phenyl-4-(o-tolyl)isoquinolin-1(2H)-one]: 200 nM.
